25 compounds from patent US9212168B2 (priority 2011, dated 2015) can be followed below.

Assay [1] deals with HCV genotype 1a replicon. In words: HCV genotype 1a replicon assay (NS3 protease activity readout). The assay is classed as cell-based, hepatitis C virus. The note with it: for Genotype 1a: HCV genotype 1a replicon; for EC50: Hepatitis C virus, read-out: Genotype 1a, HCV genotype 1a replicon. The method in brief: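 EC50 values came from a 4-parameter robust fit of fluorescence (ex 340, em 509 nm) produced by NS3-specific protease in lysates, assayed with 15 μM FRET substrate for 20 min at 37° C, after 48 or 72 hours of compound exposure (0.5% DMSO) of Huh7.5-derived APC89 genotype 1a replicon cells.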

The target of assay [2] is HCV genotype 1b replicon. The experiment in a line: HCV genotype 1b replicon assay (Renilla luciferase readout). Particulars: for Genotype 1b: HCV genotype 1b replicon; for EC50: Hepatitis C virus, read-out: Genotype 1b. In kind it is cell-based, hepatitis C virus. The method in brief: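 Reported as pEC50 derived from a 4-parameter fit of Renilla luciferase activity against concentration. Replicon cells (APC144, Huh7 background) were exposed to compound for 48 h in G418-free medium with final 0.5% DMSO, after seeding at 10,000 cells/well and 4 h adherence.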

As for `COC(=O)NC(C(=O)N1CC(C)CC1c1nc(-c2ccc(-c3cc(F)c(NC(=O)c4ccc(N5CCN(C(=O)C6CC6(F)F)CC5C)nc4)cc3C(F)(F)F)cc2)c[nH]1)C(C)C` (mixture of isomers) [Example 1-53], the “Genotype 1a” value in assay [1] is listed as “D (D represents pEC50>10 (EC50<0.1 nM))”. In addition, the “Genotype 1b” value in assay [2] is given as “D (D represents pEC50>10 (EC50<0.1 nM))”.
For `COC(=O)N[C@H](C(=O)N1C[C@@H](SC)C[C@H]1c1nc(-c2ccc(-c3cc(Cl)c(NC(=O)c4ccc(N5CCN(C(=O)[C@H]6CC6(C)C)C[C@H]5C)nc4)cc3OC(F)(F)F)cc2)c[nH]1)C(C)C` [Example 5-4], the EC50 in assay [1] and in assay [2] was < 0.1 nM each time.
In the case of `COC(=O)NC(C(=O)N1C[C@@H](C)C[C@H]1c1nc(-c2ccc(-c3cc(Cl)c(NC(=O)c4ccc(N5CCN(C(=O)C(C)(C)C)C[C@H]5C)nc4)cc3C(F)(F)F)cc2)c[nH]1)C1CCS(=O)(=O)CC1` (single isomer, unassigned) [Example 19-6], in assay [1], the “Genotype 1a” value is recorded as “D (D represents pEC50>10 (EC50<0.1 nM))”. The “Genotype 1b” value in assay [2] was “D (D represents pEC50>10 (EC50<0.1 nM))”.
With `COC(=O)N[C@H](C(=O)N1C[C@@H](C)C[C@H]1c1nc(-c2ccc(-c3ccc(C(=O)Nc4ccc(N5CCN(C(=O)C(C)(C)C)C[C@H]5C)nc4)cc3OC(F)(F)F)cc2)c(Cl)[nH]1)C1CCOCC1` [Example 22-6], the “Genotype 1a” value in assay [1] is given as “D (D represents pEC50>10 (EC50<0.1 nM))”. For the same compound, the “Genotype 1b” value in assay [2] is recorded as “D (D represents pEC50>10 (EC50<0.1 nM))”.
Turning to `[2H]C([2H])([2H])C1(C([2H])([2H])[2H])CC1C(=O)N1CCN(c2ccc(C(=O)Nc3cc(OC(F)(F)F)c(-c4ccc(-c5c[nH]c([C@@H]6C[C@H](C)CN6C(=O)[C@@H](NC(=O)OC)C(C)C)n5)cc4)cc3F)cn2)[C@H](C)C1` (some centres unmarked) [Example 1-92], in assay [1], the “Genotype 1a” value is reported as “D (D represents pEC50>10 (EC50<0.1 nM))”. In assay [2], the “Genotype 1b” value is reported as “D (D represents pEC50>10 (EC50<0.1 nM))”.
For the compound `COC(=O)NC(C(=O)N1C[C@@H](C)C[C@H]1c1nc(-c2ccc(-c3cc(Cl)c(NC(=O)c4ccc(N5CCN(C(=O)C(C)(C)C)C[C@H]5C)nc4)cc3OC(F)(F)F)cc2)c[nH]1)C1CCCOC1` (some centres unmarked) [Example 13-38], the EC50 in assay [1] and in assay [2] was < 0.1 nM in each case.
As to `COC(=O)N[C@H](C(=O)N1C[C@@H](C)C[C@H]1c1nc(-c2ccc(-c3ccc(C(=O)Nc4ccc(N5C[C@H](C)N(C(=O)[C@H]6CC6(C)C)C[C@H]5C)nc4)cc3OC(F)(F)F)cc2)c(Cl)[nH]1)C(C)C` [Example 4-10], the “Genotype 1a” value in assay [1] is “D (D represents pEC50>10 (EC50<0.1 nM))”. Also, the “Genotype 1b” value in assay [2] is recorded as “D (D represents pEC50>10 (EC50<0.1 nM))”.
Consider `COC(=O)NC(C(=O)N1CC(OC)CC1c1nc(-c2ccc(-c3cc(F)c(NC(=O)c4ccc(N5CCN(C(=O)C(C)(C)C)CC5C)nc4)cc3OC(F)(F)F)cc2)c[nH]1)C(C)OC` (centres unmarked) [Example 16-5], for which, in assay [1], the “Genotype 1a” value was “D (D represents pEC50>10 (EC50<0.1 nM))”. In addition, the “Genotype 1b” value in assay [2] is “D (D represents pEC50>10 (EC50<0.1 nM))”.
Regarding `COC(=O)N[C@H](C(=O)N1C[C@@H](OC)C[C@H]1c1nc(-c2ccc(-c3cc(Cl)c(NC(=O)c4ccc(N5C[C@H](C)N(C(=O)[C@]6(C)CCCN6C(=O)CN(C)C)C[C@H]5C)nc4)cc3OC(F)(F)F)cc2)c[nH]1)C1CCOCC1` [Example 28-19], the “Genotype 1a” value in assay [1] is “C (C represents pEC50 between and 9 and about 10, (EC50 between 1 nM and 0.1 nM))”. The “Genotype 1b” value in assay [2] is “D (D represents pEC50>10 (EC50<0.1 nM))”.
In the case of `COC(=O)N[C@H](C(=O)N1C[C@@H](O)C[C@H]1c1nc(-c2ccc(-c3cc(F)c(NC(=O)c4ccc(N5CCN(C(=O)C(C)(C)CO)C[C@H]5C)nc4)cc3OC(F)(F)F)cc2)c[nH]1)C(C)C` [Example 26-7], the “Genotype 1a” value in assay [1] is “C (C represents pEC50 between and 9 and about 10, (EC50 between 1 nM and 0.1 nM))”. Further, the “Genotype 1b” value in assay [2] is recorded as “D (D represents pEC50>10 (EC50<0.1 nM))”.
Take `COC(=O)N[C@H](C(=O)N1C[C@@H](C)C[C@H]1c1nc(-c2ccc(-c3cc(Cl)c(NC(=O)c4ccc(N5CCN(C(=O)c6c[nH]cn6)C[C@H]5C)nc4)cc3OC(F)(F)F)cc2)c[nH]1)C(C)C` [Example 1-18]: the “Genotype 1a” value in assay [1] is reported as “D (D represents pEC50>10 (EC50<0.1 nM))”. For the same compound, the “Genotype 1b” value in assay [2] was “D (D represents pEC50>10 (EC50<0.1 nM))”.
Turning to `COC(=O)N[C@H](C(=O)N1C[C@@H](C)C[C@H]1c1nc(-c2ccc(-c3cc(Cl)c(NC(=O)c4ccc(N5C[C@H](C)N(C(=O)[C@H]6CC6(C)C)C[C@H]5C)nc4)cc3C(F)(F)F)cc2)c[nH]1)C(C)C` [Example 1-11], in assay [1], the “Genotype 1a” value was “D (D represents pEC50>10 (EC50<0.1 nM))”. Besides, the “Genotype 1b” value in assay [2] is on record as “D (D represents pEC50>10 (EC50<0.1 nM))”.
Regarding `COC(=O)N[C@H](C(=O)N1C[C@@H](C)C[C@H]1c1nc(-c2ccc(-c3ccc(C(=O)Nc4ccc(N5CCN(C(=O)[C@]6(C)CCCN6C(=O)OC(C)C)C[C@H]5C)nc4)cc3OC(F)(F)F)cc2)c[nH]1)C(C)C` [Example 4-5], in assay [1], the “Genotype 1a” value was “D (D represents pEC50>10 (EC50<0.1 nM))”. Also, the “Genotype 1b” value in assay [2] was “D (D represents pEC50>10 (EC50<0.1 nM))”.
`COC(=O)N[C@H](C(=O)N1C[C@@H](C)C[C@H]1c1nc(-c2ccc(-c3ccc(C(=O)Nc4ccc(N5CCN(C(=O)[C@H]6CC6(C)C)C[C@H]5C)nc4)cc3OC(F)(F)F)cc2)c[nH]1)C1CCOCC1` [Example 22-4]: the “Genotype 1a” value in assay [1] is recorded as “D (D represents pEC50>10 (EC50<0.1 nM))”. The “Genotype 1b” value in assay [2] was “D (D represents pEC50>10 (EC50<0.1 nM))”.
On to `COC(=O)NC(C(=O)N1CC(OC)CC1c1nc(-c2ccc(-c3ccc(NC(=O)c4ccc(N5CCN(C(=O)C(C)(C)CO)CC5C)nc4)cc3OC(F)(F)F)cc2)c[nH]1)C(C)O` (centres unmarked) [Example 16-15], for which the “Genotype 1a” value in assay [1] was “C (C represents pEC50 between and 9 and about 10, (EC50 between 1 nM and 0.1 nM))”. Besides, the “Genotype 1b” value in assay [2] is recorded as “D (D represents pEC50>10 (EC50<0.1 nM))”.
In the case of `CNC(=O)N1CCN(c2ccc(C(=O)Nc3cc(C(F)(F)F)c(-c4ccc(-c5c[nH]c([C@@H]6C[C@H](C)CN6C(=O)[C@@H](NC(=O)OC)C(C)C)n5)cc4)cc3Cl)cn2)[C@H](C)C1` [Example 1-30], the “Genotype 1a” value in assay [1] is “D (D represents pEC50>10 (EC50<0.1 nM))”. In addition, in assay [2], the “Genotype 1b” value was “D (D represents pEC50>10 (EC50<0.1 nM))”.
Regarding `COC(=O)N[C@H](C(=O)N1[C@@H](C)CC[C@H]1c1nc(-c2ccc(-c3cc(Cl)c(C(=O)Nc4ccc(N5CCN(C(=O)C(C)(C)C)C[C@H]5C)nc4)cc3OC(F)(F)F)cc2)c[nH]1)C1C[C@@H](C)O[C@@H](C)C1` (some centres unmarked) [Example 18-6], the “Genotype 1a” value in assay [1] is given as “D (D represents pEC50>10 (EC50<0.1 nM))”. For the same compound, the “Genotype 1b” value in assay [2] is “D (D represents pEC50>10 (EC50<0.1 nM))”.
With `COC(=O)N[C@H](C(=O)N1C[C@@H](C)C[C@H]1c1nc(-c2ccc(-c3cc(Cl)c(NC(=O)c4ccc(N5CCN(C(=O)c6nccn6C)C[C@H]5C)nc4)cc3OC(F)(F)F)cc2)c[nH]1)C(C)C` [Example 1-36], the “Genotype 1a” value in assay [1] is given as “D (D represents pEC50>10 (EC50<0.1 nM))”. Besides, the “Genotype 1b” value in assay [2] is given as “D (D represents pEC50>10 (EC50<0.1 nM))”.
For the compound `COCC(=O)N1CCC[C@@]1(C)C(=O)N1CCN(c2ccc(NC(=O)c3ccc(-c4ccc(-c5c[nH]c([C@@H]6C[C@H](C)CN6C(=O)[C@@H](NC(=O)OC)C(C)C)n5)cc4)c(OC(F)(F)F)c3)cn2)[C@H](C)C1` [Example 4-4], the “Genotype 1a” value in assay [1] is given as “D (D represents pEC50>10 (EC50<0.1 nM))”. The “Genotype 1b” value in assay [2] is listed as “D (D represents pEC50>10 (EC50<0.1 nM))”.
For `COC(=O)N[C@H](C(=O)N1C[C@@H](C)C[C@H]1c1nc(-c2ccc(-c3cc(Cl)c(NC(=O)c4ccc(N5C[C@H](C)N(C(=O)c6c[nH]cn6)C[C@H]5C)nc4)cc3C(F)(F)F)cc2)c[nH]1)C(C)C` [Example 3, [(S)-1-((2S,4S)-2-{4-[5′-Chloro-4′-({6-[(2R,5S)-4-(1H-imidazole-4-carbonyl)-2,5-dimethyl-piperazin-1-yl]-pyridine-3-carbonyl}-amino)-2′-trifluoromethyl-biphenyl-4-yl]-1H-imidazol-2-yl}-4-methyl-pyrrolidine-1-carbonyl)-2-methyl-propyl]-carbamic acid methyl ester], the EC50 in assay [1] and in assay [2] was < 0.1 nM throughout.
With `COC(=O)N[C@H](C(=O)N1C[C@@H](O)C[C@H]1c1nc(-c2ccc(-c3ccc(NC(=O)c4ccc(N5CCN(C(=O)[C@H]6CC6(C)C)C[C@H]5C)nc4)cc3)cc2)c[nH]1)C(C)C` [Example 26-4], the “Genotype 1a” value in assay [1] was “C (C represents pEC50 between and 9 and about 10, (EC50 between 1 nM and 0.1 nM))”. Besides, in assay [2], the “Genotype 1b” value is on record as “D (D represents pEC50>10 (EC50<0.1 nM))”.
As to `COCC1(C(=O)N2CCN(c3ccc(C(=O)Nc4cc(OC(F)(F)F)c(-c5ccc(-c6c[nH]c([C@@H]7C[C@H](OC)CN7C(=O)[C@@H](NC(=O)OC)C7CCOCC7)n6)cc5)cc4Cl)cn3)[C@H](C)C2)CC1` [Example 28-21], the “Genotype 1a” value in assay [1] is recorded as “D (D represents pEC50>10 (EC50<0.1 nM))”. Also, in assay [2], the “Genotype 1b” value is on record as “D (D represents pEC50>10 (EC50<0.1 nM))”.
As to `COC(=O)N[C@H](C(=O)N1C[C@@H](C)C[C@H]1c1nc(-c2ccc(-c3cc(Cl)c(NC(=O)c4ccc(N5CCN(C(=O)C(C)(C)CO)C[C@H]5C)nc4)cc3OC(F)(F)F)cc2)c[nH]1)C1CCOCC1` [Example 13-19], the EC50 in assay [1] and in assay [2] was < 0.1 nM in each case.
For the compound `COC(=O)N[C@H](C(=O)N1C[C@@H](N(C)C)C[C@H]1c1nc(-c2ccc(-c3ccc(NC(=O)c4ccc(N5CCN(C(=O)[C@H]6CC6(C)C)C[C@H]5C)nc4)cc3)cc2)c[nH]1)C(C)C` [Example 2-3], the “Genotype 1a” value in assay [1] is “D (D represents pEC50>10 (EC50<0.1 nM))”. Also, the “Genotype 1b” value in assay [2] is reported as “D (D represents pEC50>10 (EC50<0.1 nM))”.
On to `COC(=O)N[C@H](C(=O)N1C[C@@H](C)C[C@H]1c1nc(-c2ccc(-c3cc(Cl)c(NC(=O)c4ccc(N5CCN(C(=O)NN6CCOC6=O)C[C@H]5C)nc4)cc3OC(F)(F)F)cc2)c[nH]1)C(C)C` [Example 12-17], for which the EC50 in assay [1] and in assay [2] was < 0.1 nM throughout.
